Consider 3 molecules from patent publication US8211931B2, “Active compound combinations having insecticidal and acaricidal properties” (Bayer Cropscience AG, priority 2006, dated 2012).

Type in all cases: in vivo
For one assay, the system named is Psylla pyri. Put plainly: Field test on pear trees against pear psyllids, kill of L-1 and L-4 nymphs. As to conditions: for Activity (% Abbott) Psylla piri L-1: L-1 nymphs; for Activity (% Abbott) Psylla piri L-4: L-4 nymphs. As for the experimental part:
In 4 replications, pear trees of the cultivar “Conference” of a height of about 3 m are treated against pear psyllids, Psylla pyri. Here, the active compound (I-4′) (100 OD) and the commercial standard Amitraz (UL 400) are applied at the stated application rates. The application is carried out using a knapsack sprayer and an application rate of 1000 l of water/ha. The beneficial species Anthocoris nemoralis appears 14 days after the treatment.
Evaluation is carried out 4, 8 and 14 days after the treatment by evaluating the kill of the L-1 nymphs and the L-4 nymphs on the branches.

A further assay deals with Eriosoma lanigerum. Put plainly: Field test on apple trees against woolly apple aphids, kill according to Abbott. The method, then: In three replications, in each case three about 25-year old apple trees (crown height about 2 m) of the cultivar “Elan” are treated against woolly apple aphids, Eriosoma lanigerum. Here, the active compound (I-4′) (150 OD) and the commercial standard clothianidin (WG 50) are tested comparatively at the stated application rates in the presence of the woolly aphid parasite (beneficial species) Aphelinus mali. The application is carried out using an atomizer at a water application rate of 500 l/ha. Both one and two applications at an interval of 34 days are carried out.
Evaluation is carried out 7, 30, 44, 52, 59, 66 and 73 days after the first treatment by evaluating the kill of the adult pests and the number of parasitic pests in each case 10 colonies according to Abbott.

The next assay concerns Bemisia tabaci. Put plainly: Bemisia tabaci test (cotton leaves sprayed, mirid bugs added). The conditions noted are these: 0.16 ppm, active compound alone. As for the experimental part: (§1) To produce a suitable preparation of active compound, 1 part by weight of active compound is mixed with the stated amounts of solvent and emulsifier, and the concentrate is diluted with emulsifier-containing water to the desired concentration.
Cotton leaves (Gossypium hirsutum) infested by the whitefly (Bemisia tabacii) are treated by being sprayed with the preparation of active compound at the desired concentration.
After the desired period of time, a defined amount of mirid bugs (Macrolophus caliginosus) is added.
After the desired period of time, the kill of the pest in % is determined. 100% means that all whiteflies have been killed; 0% means that none of the whiteflies have been killed. The determined kill rates are entered into Colby's formula.

The test system of the next assay is Myzus persicae. The assay is described as follows: Myzus persicae test (cabbage leaves sprayed, ladybird larvae added). The conditions noted are these: 4 ppm, active compound alone. As for the experimental part:
as §1
Cabbage leaves (Brassica oleracea) infested by the green peach aphid (Myzus persicae) are treated by being sprayed with the preparation of active compound at the desired concentration.
After the desired period of time, a defined amount of ladybird larvae (Coccinella septempunctata) is added.
After the desired period of time, the kill of the pest in % is determined. 100% means that all aphids have been killed; 0% means that none of the aphids have been killed.
The determined kill rates are entered into Colby's formula.

Where [1] appears, read: 8 d, 400 g/ha/m crown height, UL 400.
Where [2] appears, read: 14 d, 400 g/ha/m crown height, UL 400.
[3] abbreviates: 8 d, 75 g/ha/m crown height, 100 OD.
Setting [4] is: 14 d, 75 g/ha/m crown height, 100 OD.

In the case of `Cc1ccc(/N=C/N(C)/C=N/c2ccc(C)cc2C)c(C)c1` [Amitraz, reference compound], the “Activity (% Abbott) Psylla piri L-1” value with Psylla pyri (4 d, 400 g/ha/m crown height, UL 400, pear trees) turned out to be 23.6 % Abbott; with Psylla pyri (setting [1]), 41.0 % Abbott; with Psylla pyri (setting [2]) it was 41.8 % Abbott. The “Activity (% Abbott) Psylla piri L-4” value is 0.0 % Abbott with Psylla pyri (4 d, 400 g/ha/m crown height, UL 400); 44.6 % Abbott with Psylla pyri (setting [1]); 44.4 % Abbott with Psylla pyri (setting [2]).
Turning to `CN/C(=N\[N+](=O)[O-])NCc1cnc(Cl)s1` [Clothianidin, clothianidin, reference compound], the “Activity (% Abbott) Eriosoma lanigerum” value with Eriosoma lanigerum (7 d, 37.5 g/ha/m crown height, WG 50, two treatments, apple trees, Aphelinus mali present) turned out to be 71 % Abbott; with Eriosoma lanigerum (30 d, 37.5 g/ha/m crown height, WG 50, two treatments), 76 % Abbott; with Eriosoma lanigerum (44 d, 37.5 g/ha/m crown height, WG 50, two treatments), 85 % Abbott; in the assay on Eriosoma lanigerum (52 d, 37.5 g/ha/m crown height, WG 50, two treatments), 81.8 % Abbott; with Eriosoma lanigerum (59 d, 37.5 g/ha/m crown height, WG 50, two treatments) it was 81.8 % Abbott; with Eriosoma lanigerum (66 d, 37.5 g/ha/m crown height, WG 50, two treatments), 80 % Abbott. Also, the “Activity (% Abbott) Eriosoma lanigerum” value in the assay on Eriosoma lanigerum (73 d, 37.5 g/ha/m crown height, WG 50, two treatments) is reported as 80 % Abbott.
As for `CCOC(=O)OC1=C(c2cc(C)ccc2C)C(=O)N[C@]12CC[C@@H](OC)CC2` [Ex. I-4′], the “Kill in % after 14 d” value with Bemisia tabaci is listed as 0%. For the same molecule, in the assay with Myzus persicae, the “Kill in % after 7 d” value is 10%. Also, the “Activity (% Abbott) Eriosoma lanigerum” value in the assay on Eriosoma lanigerum (7 d, 75 g/ha/m crown height, 150 OD, one treatment, apple trees, Aphelinus mali present) came out at 48 % Abbott; in the assay on Eriosoma lanigerum (30 d, 75 g/ha/m crown height, 150 OD, one treatment), 95 % Abbott; in the assay with Eriosoma lanigerum (44 d, 75 g/ha/m crown height, 150 OD, one treatment), 99 % Abbott; in the assay with Eriosoma lanigerum (52 d, 75 g/ha/m crown height, 150 OD, one treatment), 99.4 % Abbott; in the assay with Eriosoma lanigerum (59 d, 75 g/ha/m crown height, 150 OD, one treatment), 98.2 % Abbott; in the assay with Eriosoma lanigerum (66 d, 75 g/ha/m crown height, 150 OD, one treatment), 98 % Abbott. Moreover, the “Activity (% Abbott) Eriosoma lanigerum” value in the assay with Eriosoma lanigerum (73 d, 75 g/ha/m crown height, 150 OD, one treatment) is given as 98 % Abbott. Also, the “Activity against Eriosoma lanigerum” value in the assay on Eriosoma lanigerum (after two treatments) turned out to be 100%. The “Activity (% Abbott) Psylla piri L-1” value in the assay with Psylla pyri (4 d, 75 g/ha/m crown height, 100 OD, pear trees) turned out to be 62.7 % Abbott; in the assay on Psylla pyri (setting [3]) it was 69.5 % Abbott; in the assay on Psylla pyri (setting [4]), 76.6 % Abbott. Besides, the “Activity (% Abbott) Psylla piri L-4” value is on record as 91.4 % Abbott with Psylla pyri (4 d, 75 g/ha/m crown height, 100 OD); 98.4 % Abbott with Psylla pyri (setting [3]); 99.3 % Abbott with Psylla pyri (setting [4]).
